26 compounds from patent US10611750B2, “Tetrahydroquinoline compositions as bet bromodomain inhibitors” (FORMA Therapeutics, Inc., priority 2013, dated 2020) can be followed below.

The target of test [1] is T1, BRD4 Bromodomain 1 (BRD4 BD1) (Homo sapiens, UniProt O60885).
T1 construct: 44-168 and BRD4 BD2
In words: AlphaScreen binding assay, BRD4 BD1. The settings on record: His-tagged BRD4 BD1 50 nM, biotinylated H4 (1-21) K5/8/12/16 tetra-acetylated peptide 50 nM, compounds listed under IC50 range headings. In a few lines:
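An AlphaScreen competition format was used with His-BRD4 BD1 or BD2 and biotin-H4 K5/8/12/16-acetyl peptide, each at matched final levels of 50 nM (BD1) or 100 nM (BD2). Incubation in HEPES/NaCl buffer with 0.1% BSA and 0.01% Triton X-100 ran ≥1 h before IC50 determination.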
(In general: Alpha assays give light when donor and acceptor beads are brought close together.)

The test system of test [2] is acute myelocytic leukemia (AML) cell line MV4-11. As to the kind of experiment: Oncology cell growth assay (3-day proliferation, CellTiter-Glo). In kind it is cell-based. The settings on record: Homo sapiens, MV4-11, 72 h, MV4-11 cells, 3000 cells/well, compounds listed under IC50 range headings, read-out: MV411 IC50 (gIC50, inhibition of proliferation). The method in brief: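 Luminescence from CellTiter-Glo served as the growth read-out after MV4-11 cells (3000/well) were cultured with compound for 72 hours. Final concentrations spanned 10 to 0.0045 μM in 3-fold steps. gIC50 values were derived by four-parameter logistic fitting relative to DMSO and cell-free controls.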

“And” between values parts separate entries of the source, which are not always exact repeats. Identical values can stand only once.

`COC(=O)N1c2ccc(-c3cnn([C@@H]4CCNC[C@H]4F)c3)c(Oc3ccc(F)cc3)c2CC[C@@H]1C` [I-368, methyl (2S)-5-(4-fluorophenoxy)-6-{1-[(3R,4R)-3-fluoropiperidin-4-yl]-1H-pyrazol-4-yl}-2-methyl-1,2,3,4-tetrahydroquinoline-1-carboxylate]: the results for the IC50 in test [1] and in test [2] were 100 to 1000 nM and under 500 nM, respectively.
In the same order, the values of `C[C@H]1CCc2c(ccc(-c3cn(C)nn3)c2Oc2cccc(F)c2)N1C(=O)C1CC1` [I-235, (S)-cyclopropyl(5-(3-fluorophenoxy)-2-methyl-6-(1-methyl-1H-1,2,3-triazol-4-yl)-3,4-dihydroquinolin-1 (2H)-yl)methanone] are 1000 to 10000 nM and under 500 nM.
For `CC(=O)N1c2c(F)cc(-c3cn[nH]c3)c(OC3CCC3)c2CC[C@@H]1C` [I-74, (S)-1-(5-cyclobutoxy-8-fluoro-2-methyl-6-(1H-pyrazol-4-yl)-3,4-dihydroquinolin-1(2H)-yl)ethanone] the same measures were 1000 to 10000 nM and 500 to 1000 nM.
`COC(=O)N1c2ccc(-c3cn(C)nn3)c(Oc3ccccc3)c2CC[C@@H]1C` [I-232, (S)-methyl 2-methyl-6-(1-methyl-1H-1,2,3-triazol-4-yl)-5-phenoxy-3,4-dihydroquinoline-1(2H)-carboxylate]: the IC50 in test [1] is 100 to 1000 nM; in test [2], under 500 nM.
In the same order, the values of `COC(=O)N1c2c(F)cc(-c3cnn(C4CC4)c3)c(Oc3ccccc3)c2CC[C@@H]1C` [I-239, (S)-methyl 6-(1-cyclopropyl-1H-pyrazol-4-yl)-8-fluoro-2-methyl-5-phenoxy-3,4-dihydroquinoline-1(2H)-carboxylate] are 1000 to 10000 nM and under 500 nM.
In the same order, the values of `C[C@H]1CCc2c(ccc(-c3cnn(C4CNC4)c3)c2Oc2ccc(F)cc2F)N1C(=O)C1CC1` [I-265, (S)-(6-(1-(azetidin-3-yl)-1H-pyrazol-4-yl)-5-(2,4-difluorophenoxy)-2-methyl-3,4-dihydroquinolin-1(2H)-yl)(cyclopropyl)methanone] are 100 to 1000 nM and under 500 nM.
For `C[C@H]1CCc2c(ccc(-n3cccn3)c2Oc2ccccc2)N1C(=O)C1CC1` [I-325, (S)-cyclopropyl(2-methyl-5-phenoxy-6-(1H-pyrazol-1-yl)-3,4-dihydroquinolin-1(2H)-yl)methanone] the same measures were at least 10000 nM and over 1000 nM.
Consider `C[C@H]1CCc2c(ccc(-c3cnn(C4CCNCC4)n3)c2Oc2ccccc2)N1C(=O)C1CC1` [I-311, (S)-cyclopropyl(2-methyl-5-phenoxy-6-(2-(piperidin-4-yl)-2H-1,2,3-triazol-4-yl)-3,4-dihydroquinolin-1(2H)-yl)methanone], for which the IC50 in test [1] is under 100 nM; in test [2], under 500 nM.
Turning to `C[C@H]1CCc2c(ccc(-n3cccn3)c2OC2CCC2)N1C(=O)C1CC1` [I-324, (S)-(5-cyclobutoxy-2-methyl-6-(1H-pyrazol-1-yl)-3,4-dihydroquinolin-1(2H)-yl)(cyclopropyl)methanone], the IC50 is at least 10000 nM in test [1] and over 1000 nM in test [2].
In the case of `COC(=O)N1c2ccc(-c3cnn(C4CNC4)c3)c(Oc3ccccc3)c2CC[C@@H]1C` [I-193, (S)-methyl 6-(1-(azetidin-3-yl)-1H-pyrazol-4-yl)-2-methyl-5-phenoxy-3,4-dihydroquinoline-1(2H)-carboxylate], the IC50 was 100 to 1000 nM in test [1] and under 500 nM in test [2].
For `COC(=O)N1c2ccc(-c3cnn(C4CCNCC4)c3)c(Oc3cccc(C)n3)c2CC[C@@H]1C` [I-333, (S)-methyl 2-methyl-5-(6-methylpyridin-2-yloxy)-6-(1-(piperidin-4-yl)-1H-pyrazol-4-yl)-3,4-dihydroquinoline-1(2H)-carboxylate] the same measures were 100 to 1000 nM and under 500 nM.
In the case of `C[C@H]1CCc2c(ccc(C#N)c2Oc2ccccc2)N1C(=O)C1CC1` [I-343, (S)-1-(cyclopropanecarbonyl)-2-methyl-5-phenoxy-1,2,3,4-tetrahydroquinoline-6-carbonitrile], the IC50 was 100 to 1000 nM and ≥ 10000 nM in test [1]; under 500 nM in test [2].
Take `C[C@H]1CCc2c(ccc(-c3cnn(C4CNC4)c3)c2Oc2cc(F)cc(F)c2)N1C(=O)C1CC1` [I-181, (S)-(6-(1-(azetidin-3-yl)-1H-pyrazol-4-yl)-5-(3,5-difluorophenoxy)-2-methyl-3,4-dihydroquinolin-1(2H)-yl)(cyclopropyl)methanone]: the IC50 is 100 to 1000 nM in test [1] and under 500 nM in test [2].
For `COC(=O)N1c2ccc(-c3cnn(C4CNC4C)c3)c(OC3CCC3)c2CC[C@@H]1C` (stereo partly drawn) [I-299, methyl (2S)-5-cyclobutoxy-2-methyl-6-(1-(2-methylazetidin-3-yl)-1H-pyrazol-4-yl)-3,4-dihydroquinoline-1(2H)-carboxylate] the same measures were 1000 to 10000 nM and 500 to 1000 nM.
For `C[C@H]1CCc2c(ccc(-c3c[nH]nn3)c2Oc2ccccc2)N1C(=O)C1CC1` [I-187, (S)-cyclopropyl(2-methyl-5-phenoxy-6-(1H-1,2,3-triazol-4-yl)-3,4-dihydroquinolin-1(2H)-yl)methanone] the same measures were 100 to 1000 nM and under 500 nM.
For `COC(=O)N1c2ccc(-c3cnn(C4CNC4C)c3)c(Oc3ccc(F)cc3)c2CC[C@@H]1C` (stereo partly drawn) [I-298, methyl (2S)-5-(4-fluorophenoxy)-2-methyl-6-(1-(2-methylazetidin-3-yl)-1H-pyrazol-4-yl)-3,4-dihydroquinoline-1(2H)-carboxylate] the same measures were 100 to 1000 nM and under 500 nM.
Take `CC(=O)N1c2c(F)cc(-c3cn[nH]c3)c(Oc3ccccc3)c2CC[C@@H]1C` [I-242, (S)-1-(8-fluoro-2-methyl-5-phenoxy-6-(1H-pyrazol-4-yl)-3,4-dihydroquinolin-1(2H)-yl)ethanone]: the IC50 in test [1] is 100 to 1000 nM; in test [2], under 500 nM.
In the same order, the values of `C[C@H]1CCc2c(ccc(-c3ncc(C4CCNCC4)[nH]3)c2Oc2ccccc2)N1C(=O)C1CC1` [I-329, (S)-cyclopropyl(2-methyl-5-phenoxy-6-(5-(piperidin-4-yl)-1H-imidazol-2-yl)-3,4-dihydroquinolin-1(2H)-yl)methanone] are 100 to 1000 nM and under 500 nM.
As to `CC(=O)N1c2ccc(-c3cnn(C4CCNCC4)c3)c(Oc3ccc(F)c(F)c3)c2CC[C@@H]1C` [I-275, (S)-1-(5-(3,4-difluorophenoxy)-2-methyl-6-(1-(piperidin-4-yl)-1H-pyrazol-4-yl)-3,4-dihydroquinolin-1 (2H)-yl)ethanone], the IC50 in test [1] is 100 to 1000 nM; in test [2] it was under 500 nM.
In the same order, the values of `C[C@H]1CCc2c(ccc(-c3cnn(C4CCNCC4)c3)c2Oc2ccccc2Cl)N1C(=O)C1CC1` [I-165, (S)-(5-(2-chlorophenoxy)-2-methyl-6-(1-(piperidin-4-yl)-1H-pyrazol-4-yl)-3,4-dihydroquinolin-1(2H)-yl)(cyclopropyl)methanone] are 100 to 1000 nM and under 500 nM.
In the same order, the values of `C[C@H]1CCc2c(ccc(-c3cnn(C4CCOCC4)c3)c2OC2CCC2)N1C(=O)C1CC1` [I-507] are 100 to 1000 nM and 500 to 1000 nM.
In the same order, the values of `COC(=O)N1c2c(F)cc(-c3cn[nH]c3)c(Oc3ccccc3)c2CC[C@@H]1C` [I-240, (S)-methyl 8-fluoro-2-methyl-5-phenoxy-6-(1H-pyrazol-4-yl)-3,4-dihydroquinoline-1(2H)-carboxylate] are 100 to 1000 nM and under 500 nM.
Turning to `COc1ccccc1Oc1c(-c2cnn(C3CCNCC3)c2)ccc2c1CC[C@H](C)N2C(=O)C1CC1` [I-194, (S)-cyclopropyl(5-(2-methoxyphenoxy)-2-methyl-6-(1-(piperidin-4-yl)-1H-pyrazol-4-yl)-3,4-dihydroquinolin-1(2H)-yl)methanone], the IC50 in test [1] is 100 to 1000 nM; in test [2], under 500 nM.
In the same order, the values of `Cc1nnc(-c2ccc3c(c2Oc2ccccc2)CC[C@H](C)N3C(=O)C2CC2)s1` [I-220, (S)-cyclopropyl(2-methyl-6-(5-methyl-1,3,4-thiadiazol-2-yl)-5-phenoxy-3,4-dihydroquinolin-1(2H)-yl)methanone] are 1000 to 10000 nM and under 500 nM.
For `C[C@H]1CCc2c(ccc(-c3cnn(C4CS(=O)(=O)C4)c3)c2OC2CCC2)N1C(=O)C1CC1` [I-509] the same measures were 100 to 1000 nM and under 500 nM.
In the same order, the values of `C[C@H]1CCc2c(ccc(-c3cnn(C4CCNCC4)c3)c2Oc2cccc(F)c2F)N1C(=O)C1CC1` [I-267, (S)-cyclopropyl(5-(2,3-difluorophenoxy)-2-methyl-6-(1-(piperidin-4-yl)-1H-pyrazol-4-yl)-3,4-dihydroquinolin-1(2H)-yl)methanone] are 100 to 1000 nM and under 500 nM.
